{
  "source": "paper PMC11522050",
  "about": "“Cloning, expression and characterisation of a novel mollusc α-1,2-Fucosyltransferase from Crassostrea gigas (CgFUT2)” (Glycoconjugate Journal, 2024)",
  "key": {"CgFUT2 [1]": {"target": "T1, CgFUT2 (Magallana gigas, UniProt A0AA95ZAK5)", "T1 construct": "crude cell lysate used (purification failed)", "T1 sequence (A0AA95ZAK5 1-350)": "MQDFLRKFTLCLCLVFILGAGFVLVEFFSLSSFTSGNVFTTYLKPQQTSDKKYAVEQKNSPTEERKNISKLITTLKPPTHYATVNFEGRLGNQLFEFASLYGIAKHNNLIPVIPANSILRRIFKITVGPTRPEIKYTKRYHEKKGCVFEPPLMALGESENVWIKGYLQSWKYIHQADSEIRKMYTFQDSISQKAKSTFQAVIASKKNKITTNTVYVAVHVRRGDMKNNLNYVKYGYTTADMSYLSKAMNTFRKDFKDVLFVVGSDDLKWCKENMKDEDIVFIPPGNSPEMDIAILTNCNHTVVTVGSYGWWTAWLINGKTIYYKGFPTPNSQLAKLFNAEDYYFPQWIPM", "experiment": "fucosyl transfer, HPLC with UV detection; product by NMR", "assay_type": "biochemical", "conditions": "acceptor; 3 mM GDP-Fuc, 20 mM MnCl2, MES pH 7.0, 37 °C; control Sf9 lysate without enzyme as blank"}, "CgFUT2 [2]": {"target": "T1, CgFUT2", "experiment": "fucosyl transfer to pNP-lactose, HPLC with UV detection", "assay_type": "biochemical", "conditions": "0.25 mM GDP; 3 mM GDP-Fuc, 0.5 mM pNP-β-lactose, 20 mM MnCl2, 2 mM ATP, MES pH 7.0, 37 °C; Sf9 lysate"}},
  "data": [
    {"smiles": "O=[N+]([O-])c1ccc(O[C@@H]2O[C@H](CO)[C@@H](O[C@@H]3O[C@H](CO)[C@H](O)[C@H](O)[C@H]3O)[C@H](O)[C@H]2O)cc1", "note": "[pNP-β-lactose]", "values": [
      {"measurement": "fucosyl transfer, HPLC with UV detection; product by NMR", "setting": "CgFUT2 [1]", "result": "Sf9 cell lysate expressing CgFUT2 and a control Sf9 cell lysate was assessed using pNP-β-lactose"}
    ]},
    {"smiles": "Nc1nc2c(ncn2[C@@H]2O[C@H](COP(=O)(O)OP(=O)(O)O)[C@@H](O)[C@H]2O)c(=O)[nH]1", "note": "[GDP]", "values": [
      {"measurement": "% decrease of activity at 0.25 mM", "setting": "CgFUT2 [2]", "result": 30, "unit": "%"}
    ]}
  ]
}
